Experimental data as given in the supplement of paper PMC10307832.

Assays:
Test in all cases: relative viability (nuclei count vs DMSO), 5 days (fraction); higher = more cells survive
[1] = test system: A-427
Method in brief: (§1)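 Relative viability was taken as the ratio of nuclei in treated wells to nuclei in vehicle wells. Lung cancer cell lines in 1536-well plates received compounds by pin tool one day after seeding, either one drug alone or a fixed anchor-drug dose plus five library-drug doses (not always all listed) in √10 steps. Nuclei were counted on 4× images after 5 days of treatment, and values are medians of duplicate plates.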

[2] = test system: HCC-15
Method in brief: as §1

[3] = test system: HCC-78
Method in brief: as §1

[4] = test system: HOP-62
Method in brief: as §1

[5] = test system: LC-2-ad
Method in brief: as §1

[6] = test system: LXF-289
Method in brief: as §1

[7] = test system: NCI-H1734
Method in brief: as §1

[8] = test system: NCI-H1755
Method in brief: as §1

[9] = test system: NCI-H1792
Method in brief: as §1

[10] = test system: NCI-H1915
Method in brief: as §1

[11] = test system: NCI-H1975
Method in brief: as §1

[12] = test system: NCI-H2126
Method in brief: as §1

[13] = test system: NCI-H2228
Method in brief: as §1

[14] = test system: NCI-H2342
Method in brief: as §1

[15] = test system: NCI-H2347
Method in brief: as §1

[16] = test system: NCI-H358
Method in brief: as §1

[17] = test system: NCI-H522
Method in brief: as §1

[18] = test system: NCI-H647
Method in brief: as §1

[19] = test system: PC-3 [JPC-3]
Method in brief: as §1

[20] = test system: RERF-LC-KJ
Method in brief: as §1

[21] = test system: SK-LU-1
Method in brief: as §1

[22] = test system: SW 1573
Method in brief: as §1

Question: For `O=c1cc(N2CCOCC2)oc2c(-c3cccc4c3sc3ccccc34)cccc12` + N=C(N)NC(=N)NCCc1ccccc1 [Phenformin] (partner 250 µM), which relative viability ([1]; first compound 0.01 µM) is on record?
Answer: 0.31

Question: And the relative viability ([1]; first compound 0.03162 µM)?
Answer: 0.294

Question: And the relative viability ([1]; first compound 0.1 µM)?
Answer: 0.315

Question: And the relative viability ([1]; first compound 0.3162 µM)?
Answer: 0.313

Question: What about the relative viability ([1]; first compound 1 µM) of the same compound?
Answer: 0.341

Question: And the relative viability ([2]; first compound 0.01 µM)?
Answer: 0.47

Question: What about the relative viability ([2]; first compound 0.03162 µM) of the same compound?
Answer: 0.481

Question: What about the relative viability ([2]; first compound 0.1 µM) of the same compound?
Answer: 0.596

Question: What about the relative viability ([2]; first compound 0.3162 µM) of the same compound?
Answer: 0.481

Question: What about the relative viability ([2]; first compound 1 µM) of the same compound?
Answer: 0.498

Question: What about the relative viability ([3]; first compound 0.01 µM) of the same compound?
Answer: 0.738

Question: What about the relative viability ([3]; first compound 0.03162 µM) of the same compound?
Answer: 0.652

Question: What about the relative viability ([3]; first compound 0.1 µM) of the same compound?
Answer: 0.388

Question: And the relative viability ([3]; first compound 0.3162 µM)?
Answer: 0.622

Question: And the relative viability ([3]; first compound 1 µM)?
Answer: 0.627

Question: And the relative viability ([4]; first compound 0.01 µM)?
Answer: 0.555

Question: And the relative viability ([4]; first compound 0.03162 µM)?
Answer: 0.735

Question: What about the relative viability ([4]; first compound 0.1 µM) of the same compound?
Answer: 0.671

Question: And the relative viability ([4]; first compound 0.3162 µM)?
Answer: 0.575

Question: What about the relative viability ([4]; first compound 1 µM) of the same compound?
Answer: 0.704

Question: And the relative viability ([5]; first compound 0.01 µM)?
Answer: 0.624

Question: What about the relative viability ([5]; first compound 0.03162 µM) of the same compound?
Answer: 0.592

Question: What about the relative viability ([5]; first compound 0.1 µM) of the same compound?
Answer: 0.614

Question: What about the relative viability ([5]; first compound 0.3162 µM) of the same compound?
Answer: 0.547

Question: And the relative viability ([5]; first compound 1 µM)?
Answer: 0.534

Question: What about the relative viability ([6]; first compound 0.01 µM) of the same compound?
Answer: 0.523

Question: And the relative viability ([6]; first compound 0.03162 µM)?
Answer: 0.55

Question: And the relative viability ([6]; first compound 0.1 µM)?
Answer: 0.457

Question: What about the relative viability ([6]; first compound 0.3162 µM) of the same compound?
Answer: 0.498

Question: What about the relative viability ([6]; first compound 1 µM) of the same compound?
Answer: 0.529

Question: What about the relative viability ([7]; first compound 0.01 µM) of the same compound?
Answer: 0.379

Question: What about the relative viability ([7]; first compound 0.03162 µM) of the same compound?
Answer: 0.379

Question: What about the relative viability ([7]; first compound 0.1 µM) of the same compound?
Answer: 0.403

Question: And the relative viability ([7]; first compound 0.3162 µM)?
Answer: 0.388

Question: What about the relative viability ([7]; first compound 1 µM) of the same compound?
Answer: 0.352

Question: And the relative viability ([8]; first compound 0.01 µM)?
Answer: 0.652

Question: What about the relative viability ([8]; first compound 0.03162 µM) of the same compound?
Answer: 0.694

Question: What about the relative viability ([8]; first compound 0.1 µM) of the same compound?
Answer: 0.655

Question: And the relative viability ([8]; first compound 0.3162 µM)?
Answer: 0.614

Question: And the relative viability ([8]; first compound 1 µM)?
Answer: 0.605

Question: And the relative viability ([9]; first compound 0.01 µM)?
Answer: 0.26

Question: And the relative viability ([9]; first compound 0.03162 µM)?
Answer: 0.202

Question: What about the relative viability ([9]; first compound 0.1 µM) of the same compound?
Answer: 0.213

Question: What about the relative viability ([9]; first compound 0.3162 µM) of the same compound?
Answer: 0.32

Question: And the relative viability ([9]; first compound 1 µM)?
Answer: 0.184

Question: And the relative viability ([10]; first compound 0.01 µM)?
Answer: 0.381

Question: And the relative viability ([10]; first compound 0.03162 µM)?
Answer: 0.387

Question: What about the relative viability ([10]; first compound 0.1 µM) of the same compound?
Answer: 0.371

Question: And the relative viability ([10]; first compound 0.3162 µM)?
Answer: 0.386

Question: And the relative viability ([10]; first compound 1 µM)?
Answer: 0.369

Question: And the relative viability ([11]; first compound 0.01 µM)?
Answer: 0.414

Question: What about the relative viability ([11]; first compound 0.03162 µM) of the same compound?
Answer: 0.439

Question: What about the relative viability ([11]; first compound 0.1 µM) of the same compound?
Answer: 0.408

Question: And the relative viability ([11]; first compound 0.3162 µM)?
Answer: 0.397

Question: What about the relative viability ([11]; first compound 1 µM) of the same compound?
Answer: 0.418

Question: And the relative viability ([12]; first compound 0.01 µM)?
Answer: 0.513

Question: What about the relative viability ([12]; first compound 0.03162 µM) of the same compound?
Answer: 0.547

Question: And the relative viability ([12]; first compound 0.1 µM)?
Answer: 0.53

Question: And the relative viability ([12]; first compound 0.3162 µM)?
Answer: 0.554

Question: What about the relative viability ([12]; first compound 1 µM) of the same compound?
Answer: 0.515

Question: And the relative viability ([13]; first compound 0.01 µM)?
Answer: 0.372

Question: What about the relative viability ([13]; first compound 0.03162 µM) of the same compound?
Answer: 0.391

Question: What about the relative viability ([13]; first compound 0.1 µM) of the same compound?
Answer: 0.262

Question: What about the relative viability ([13]; first compound 0.3162 µM) of the same compound?
Answer: 0.259

Question: And the relative viability ([13]; first compound 1 µM)?
Answer: 0.37

Question: And the relative viability ([14]; first compound 0.01 µM)?
Answer: 0.575

Question: And the relative viability ([14]; first compound 0.03162 µM)?
Answer: 0.59

Question: What about the relative viability ([14]; first compound 0.1 µM) of the same compound?
Answer: 0.601

Question: And the relative viability ([14]; first compound 0.3162 µM)?
Answer: 0.621

Question: What about the relative viability ([14]; first compound 1 µM) of the same compound?
Answer: 0.576

Question: And the relative viability ([15]; first compound 0.01 µM)?
Answer: 0.545

Question: And the relative viability ([15]; first compound 0.03162 µM)?
Answer: 0.318

Question: And the relative viability ([15]; first compound 0.1 µM)?
Answer: 0.376

Question: And the relative viability ([15]; first compound 0.3162 µM)?
Answer: 0.419

Question: And the relative viability ([15]; first compound 1 µM)?
Answer: 0.317

Question: And the relative viability ([16]; first compound 0.01 µM)?
Answer: 0.339

Question: And the relative viability ([16]; first compound 0.03162 µM)?
Answer: 0.35

Question: What about the relative viability ([16]; first compound 0.1 µM) of the same compound?
Answer: 0.351

Question: And the relative viability ([16]; first compound 0.3162 µM)?
Answer: 0.325

Question: What about the relative viability ([16]; first compound 1 µM) of the same compound?
Answer: 0.322

Question: What about the relative viability ([17]; first compound 0.01 µM) of the same compound?
Answer: 0.724

Question: And the relative viability ([17]; first compound 0.03162 µM)?
Answer: 0.662

Question: And the relative viability ([17]; first compound 0.1 µM)?
Answer: 0.572

Question: And the relative viability ([17]; first compound 0.3162 µM)?
Answer: 0.621

Question: What about the relative viability ([17]; first compound 1 µM) of the same compound?
Answer: 0.618

Question: And the relative viability ([18]; first compound 0.01 µM)?
Answer: 0.547

Question: What about the relative viability ([18]; first compound 0.03162 µM) of the same compound?
Answer: 0.643

Question: What about the relative viability ([18]; first compound 0.1 µM) of the same compound?
Answer: 0.319

Question: What about the relative viability ([18]; first compound 0.3162 µM) of the same compound?
Answer: 0.526

Question: And the relative viability ([18]; first compound 1 µM)?
Answer: 0.715

Question: And the relative viability ([19]; first compound 0.01 µM)?
Answer: 0.467

Question: What about the relative viability ([19]; first compound 0.03162 µM) of the same compound?
Answer: 0.476

Question: What about the relative viability ([19]; first compound 0.1 µM) of the same compound?
Answer: 0.441

Question: What about the relative viability ([19]; first compound 0.3162 µM) of the same compound?
Answer: 0.496

Question: And the relative viability ([19]; first compound 1 µM)?
Answer: 0.513

Question: What about the relative viability ([20]; first compound 0.01 µM) of the same compound?
Answer: 0.429

Question: What about the relative viability ([20]; first compound 0.03162 µM) of the same compound?
Answer: 0.413

Question: And the relative viability ([20]; first compound 0.1 µM)?
Answer: 0.412

Question: What about the relative viability ([20]; first compound 0.3162 µM) of the same compound?
Answer: 0.418

Question: And the relative viability ([20]; first compound 1 µM)?
Answer: 0.427

Question: And the relative viability ([21]; first compound 0.01 µM)?
Answer: 0.573

Question: What about the relative viability ([21]; first compound 0.03162 µM) of the same compound?
Answer: 0.551

Question: And the relative viability ([21]; first compound 0.1 µM)?
Answer: 0.531

Question: What about the relative viability ([21]; first compound 0.3162 µM) of the same compound?
Answer: 0.509

Question: And the relative viability ([21]; first compound 1 µM)?
Answer: 0.45

Question: What about the relative viability ([22]; first compound 0.01 µM) of the same compound?
Answer: 0.451

Question: What about the relative viability ([22]; first compound 0.03162 µM) of the same compound?
Answer: 0.395

Question: What about the relative viability ([22]; first compound 0.1 µM) of the same compound?
Answer: 0.426

Question: What about the relative viability ([22]; first compound 0.3162 µM) of the same compound?
Answer: 0.326

Question: And the relative viability ([22]; first compound 1 µM)?
Answer: 0.343
